What was measured:
[1] = tested on: bone cancer pain model in rat (Walker 256 cells); assay: Paw withdrawal thermal latency (PWL) in bone cancer pain model; type: in vivo, SD rats; settings: 20 mg/kg, i.g.
Experimental: 1. Animals 50 SD rats (180-220 g), placed under a quiet and warm (22° C.) environment without strong light irradiation, having free access to feed and water.
2. Cell Culture: SD Rat homologous cancer cell strains Walker 256 preserved by the Laboratory Animal Center, Forth Military Medical
University, or a commercially available product can be used. RPMI 1640 culture medium (Gibco Inc. of US, containing 100 U/ml each of 10% fetal bovine serum, penicillin, and streptomycin) was used, and the tumor cells were incubated as suspension cells in a 37° C. incubator under 5% CO2, with the medium replaced every other day, and 2 days for 1 passage. The cells were harvested at the 3rd passage, with a cell concentration of 2×10^5/10 μl.
3. Establishment of bone cancer pain model in rat: the rats were operated at the left knee with a small incision after anesthesia (40 mg/kg of pentobarbital sodium) according to sterile surgical operation procedures, the muscle was stripped off gently and the patellar ligament is cut open to expose the distal femur, with 1 mm syringe needle inserted from the intercondylar fossa vertically into the marrow cavity, with an inserting distance no more than 5 mm to prevent punching. Then a 20 μl micro-injector was inserted into the marrow cavity to slowly inject 10 μl of a suspension containing the Walker 256 cells (2×10^5 cancer cells per 10 μl). The injector was stayed there for a few minutes after the injection, and then the needle pinhole was immediately sealed with sterile bone wax. The tumor cells leaking out of the marrow cavity were killed with 75% ethyl alcohol, and then the rat was sutured under sterile conditions layer by layer. The same operation was performed in the sham operation group, except that only the same volume of sterile saline was injected into the marrow cavity slowly.
6. Drug intervention: On day 18 after the surgical operation, the SD rats of the operation group were randomized into 6 groups, i.e., respectively the model group; non-crystalline NB001 group (20 mg/kg, i.g.); the group of the crystal of the present invention (20 mg/kg, i.g.); morphine (2 mg/kg, i.p.); and gabapentin (100 mg/kg, i.g.). The new crystal form and non-crystalline form of the AC1 inhibitor NB001 were both formulated with sterile saline, and morphine and gabapentin were used as positive control drugs. All drugs were administered twice daily for 3 days, and the pain threshold was measured within 2 hours after the last administration on day 3
7. Assessment of rat pain behavior:
Paw withdrawal thermal latency (PWL): the PWL was measured by using a PL-200 thermal pain stimulator (8V, 50 W, with a strength of 100%). The time period since the time irradiating the middle portion of the planta pedis at the operation side of the rat with light till the time the rat lifted its leg to keep out of the light was TWL. To prevent tissue injury, a cut-off time of 80 s was set, each rat was measured for 3 times with an interval of 5 min, and the results were averaged.

[2] = Stability test of the crystal form (stress, long-term and accelerated test); type: physicochemical
Experimental: Stress test, long-term stable test and accelerated stability test of the compound with the crystal form:
The stability of the compound with such a crystal form was investigated under conditions of a high temperature (60° C.), high humidity (92.5% RH), strong light irradiation (5 Klx), 40° C./75% RH (for accelerated test) and 25° C./60% RH (for long term test), in accordance with “Guidelines for Stability Testing of bulk pharmaceutical chemicals and formulation” (Chinese Pharmacopoeia 2015 Edition, four main sections of general requirements 9001).
10 mg of the crystalline sample involved in the Examples of the present invention was accurately weighed and placed on the bottom of a glass sample vial, and then spread out to form a thin layer. The samples for test under high temperature and high humidity conditions and for the long-term test were contained in vials sealed with aluminum-foil paper, and some small holes were made on the aluminum-foil paper to ensure that the sample can be fully in contact with ambient conditions; The samples for test under strong light irradiation and for the accelerated test were contained in vials sealed with screw bottle caps. The samples placed under different conditions were taken and analyzed on day 5, 10, and 30, and the analysis results were compared with the initial test results on day 0.

[3] = Accelerated test (40° C./75% RH), Day 30
[4] = Long-term test (25° C./60% RH), Day 30
[5] = Stress test, high humidity (92.5% RH), Day 5
[6] = Stress test, high humidity (92.5% RH), Day 10
[7] = Stress test, high humidity (92.5% RH), Day 30
[8] = Stress test, high temperature (60° C.), Day 5
[9] = Stress test, high temperature (60° C.), Day 10
[10] = Stress test, high temperature (60° C.), Day 30
[11] = Stress test, strong light irradiation (5 Klx), Day 10

## Nc1ncnc2c1ncn2CCNCCCCCO [New NB001, 5-(((2-(6-amino)-9H-purin-9-yl)ethyl)amino)pentan-1-ol]
[1]; twice daily for 3 days, PWL at 2 h after last administration (21d)
  analgesic effect (PWL) as compared with the model group: better analgesic effect
[1]; P<0.01
  significance of the analgesic effect (PWL), FIG. 7: extremely significant
[2]; [3]
  Characteristics: off-white powder
  Content (%): 99.51%
  Total Impurities (%): 0.49%
[2]; Day 0
  Characteristics: off-white powder
  Content (%): 99.39%
  Total Impurities (%): 0.61%
[2]; [4]
  Characteristics: off-white powder
  Content (%): off-
  Total Impurities (%): 0.60%
[2]; [5]
  Characteristics: off-white powder
  Content (%): 99.51%
  Total Impurities (%): 0.49%
[2]; [6]
  Characteristics: off-white powder
  Content (%): 99.41%
  Total Impurities (%): 0.59%
[2]; [7]
  Characteristics: off-white powder
  Content (%): 99.53%
  Total Impurities (%): 0.47%
[2]; [8]
  Characteristics: off-white powder
  Content (%): 99.47%
  Total Impurities (%): 0.53%
[2]; [9]
  Characteristics: off-white powder
  Content (%): 99.52%
  Total Impurities (%): 0.48%
[2]; [10]
  Characteristics: off-white powder
  Content (%): 99.43%
  Total Impurities (%): 0.57%
[2]; [11]
  Characteristics: off-white powder
  Content (%): 99.48%
  Total Impurities (%): 0.52%
[2]; all test conditions of Table 5
  stability under various test conditions: good

Reference: patent publication US9963457B2, “Crystal of 5-((2-(6-amino)-9H-purin-9-yl)ethyl)amino)pentan-1-o1” (FOREVER CHEER INTERNATIONAL LIMITED, priority 2016, dated 2018)
